The source of these data is PMC4043666, “Mass Spectrometry Based Identification of Geometric Isomers during Metabolic Stability Study of a New Cytotoxic Sulfonamide Derivatives Supported by Quantitative Structure-Retention Relationships” (PLoS ONE, 2014).

Series [1] in a line: RP-LC determination of chromatographic lipophilicity log kw (DryLab). Type of series: physicochemical. The note with it: Poroshell EC18 column, 30°C, acetonitrile 5-100% gradients of 30 and 60 min, calculated with DryLab. As for the experimental part: (2) In order to obtain input lipophilicity data, reversed-phase liquid chromatography (RP-LC) log kw determination experiments were performed using the Agilent 1260 apparatus (Agilent Technologies, Santa Clara, CA, USA) equipped with UV and single quadrupole mass detectors, and an autosampler and column thermostat. A Poroshell EC18 150×3 mm column with a particle size of 2.7 µm was applied. Chromatographic measurements were made at 30°C with an eluent flow rate of 0.25 mL/min. Two chromatographic runs were conducted for each compound with different linear gradient times (30 and 60 min), and with an acetonitrile composition in the mobile phase increasing from 5% to 100%. The obtained retention times were further used to calculate log kw values applying the DryLab 2000 Plus software (LC Resources, Walnut Creek, CA, USA). DryLab estimated the log kw value according to the linear equation: log k = logkw+Sφ (k – retention factor, S – slope, φ – volume fraction of the organic modifier) The elution program, as well as the column, mobile phase and instrument properties were taken into account to determine the coefficients in the abovementioned equation. Two analytical runs were required to fit the data, and peak assignment was done manually to ensure the correct identification.

The nature of series [2]: Chemical stability / cis-trans isomerization in solution (LC-MS). Type of series: physicochemical. The conditions noted are these: for % of isomerization at the beginning of incubation: biotransformation incubation samples, start of incubation. As for the experimental part:
Additionally, chemical stability (negative control) in biotransformation experiment conditions was performed (phosphate buffer, 37°C, 2 h) to evaluate possible instability, unrelated to the activity of microsomes (including putative isomerization).
(§1) LC-MS analysis was performed on an Agilent 1260 system coupled to a SingleQuad 6120 mass spectrometer (Agilent Technologies, Santa Clara, CA, USA). The amount of remaining parent compound was determined as a percentage of a peak area of a trans isomer at the start of the incubation.
(§2) A Poroshell C18 EC120 column (3.0×100 mm, 2.7 µm, Agilent Technologies, Santa Clara, CA, USA) was used in reversed-phase mode with gradient elution starting with 5% of phase A (0.1% formic acid in water) and 95% of phase B (0.1% formic acid in acetonitrile). […] The total analysis time was 42 min at 25°C, the flow rate was 0.25 mL/min and the injection volume was 20 µL. The mass spectrometer was equipped with an electrospray ionization source and the ionization mode was positive. The mass analyzer was set individually to each derivative to detect pseudomolecular ions [M+H^+]. The mass spectrometry detector parameters of the ESI source were as follows: nebulizer pressure 40 psi (N2), drying gas […] (N2), drying gas temperature 300°C, capillary voltage +3 kV.

Series [3] can be described thus: In vitro metabolic stability in human liver microsomes (LC-MS). Type of series: in vitro ADME. The note with it: for % of compound remaining after 120 min incubation: HLM 0.53 mg/mL, 1 mM NADPH, compound 10 µM, phosphate buffer pH 7.4, 37°C, percentage of peak area of trans isomer at start of incubation. Here is the method:
Stock solutions of the studied compounds were made at a concentration of 1 mM in DMSO:MeOH mixture (10∶90 v/v) to prevent their precipitation. For biotransformation incubations, the solution of compounds was diluted to 10 µM with the presence of 1 mM of NADPH (Sigma-Aldrich, St. Louis, MO, USA) in a potassium phosphate buffer (0.1 M, pH 7.4). Incubation was carried out in thermoblock (Labnet International, Edison, NJ, USA) at 37°C and started with the addition of pooled human liver microsomes with a final concentration of 0.53 mg/mL (Sigma-Aldrich, St. Louis, MO, USA). Directly after HLM was added and at 120 min of incubation the reaction was ended by the addition of an equal volume of ice-cold methanol with 0.1% (v/v) of formic acid. The samples were immediately centrifuged (10 min at 11700 g) and the resulting supernatant was directly analyzed or kept at −80°C until LC-MS or LC-QTOF-MS analysis.
as §1, §2
Background: Microsomes from liver hold many membrane-bound enzymes, among them those of drug oxidation.

On to `CC/C(=N/Nc1ccc([N+](=O)[O-])cc1)Sc1cc(Cl)c(C)cc1S(N)(=O)=O` [1-cis], for which the logkw in series [1] is listed as 3.52.
Take `CC/C(=N\Nc1ccc([N+](=O)[O-])cc1)Sc1cc(Cl)c(C)cc1S(N)(=O)=O` [1-trans]: in series [1], the logkw was 3.60.
As to `CCC(=NNc1ccc([N+](=O)[O-])cc1)Sc1cc(Cl)c(C)cc1S(N)(=O)=O` [Compound 1], the “% of isomerization at the beginning of incubation” value (“% of isomerization” below) in series [2] is recorded as 5.84%. The “% of compound remaining after 120 min incubation” value (“% of compound remaining” below) in series [3] amounted to 53.51%.
For `CCC/C(=N\Nc1ccc([N+](=O)[O-])cc1)Sc1cc(Cl)c(C)cc1S(N)(=O)=O` [Compound 2], in that order: 6.52% and 75.13%.
For `Cc1cc(S(N)(=O)=O)c(S/C(=N/Nc2ccc([N+](=O)[O-])cc2)C(C)C)cc1Cl` [Compound 3], in that order: 7.76% and 76.13%.
With `Cc1cc(S(N)(=O)=O)c(S/C(=N/Nc2ccc([N+](=O)[O-])cc2[N+](=O)[O-])C(C)C)cc1Cl` [Compound 4], the “% of isomerization” value in series [2] is reported as 0.00%. Moreover, the “cis-trans isomerization in the studied conditions” value in series [2] (water solution / incubation conditions) was “did not occur”. In series [3], the “% of compound remaining” value came to 62.86%.
Take `Cc1cc(S(N)(=O)=O)c(S/C(CC(C)C)=N/Nc2ccc([N+](=O)[O-])cc2)cc1Cl` [Compound 5]: in series [2], the “% of isomerization” value came to 5.84%. Also, in series [3], the “% of compound remaining” value stood at 79.95%.
With `Cc1cc(S(N)(=O)=O)c(S/C(=N/Nc2ccc([N+](=O)[O-])cc2)C(C)(C)C)cc1Cl` [Compound 6], in series [2], the “% of isomerization” value is 3.50%. Also, in series [3], the “% of compound remaining” value is on record as 83.88%.
For `CCCCC/C(=N\Nc1ccc([N+](=O)[O-])cc1)Sc1cc(Cl)c(C)cc1S(N)(=O)=O` [Compound 7], in that order: 5.53% and 60.90%.
Turning to `Cc1cc(S(N)(=O)=O)c(S/C(CCc2ccccc2)=N/Nc2ccc([N+](=O)[O-])cc2)cc1Cl` [Compound 8], the “% of isomerization” value in series [2] came to 5.25%. Besides, the “% of compound remaining” value in series [3] is reported as 58.23%.
As for `Cc1cc(S(N)(=O)=O)c(S/C(=N/Nc2ccc([N+](=O)[O-])cc2)c2ccccc2)cc1Cl` [Compound 9], the “% of isomerization” value in series [2] is given as 9.28%. Moreover, the “% of compound remaining” value in series [3] was 96.03%.
As for `Cc1cc(S(N)(=O)=O)c(S/C(=N/Nc2ccc([N+](=O)[O-])cc2)c2ccc(Cl)cc2)cc1Cl` [Compound 10], the “% of isomerization” value in series [2] was determined as 7.79%. For the same compound, the “% of compound remaining” value in series [3] amounted to 90.80%.
As to `Cc1cc(S(N)(=O)=O)c(S/C(=N/Nc2ccc([N+](=O)[O-])cc2)c2ccc([N+](=O)[O-])cc2)cc1Cl` [Compound 11], in series [2], the “% of isomerization” value was 1.50%. In addition, the “% of compound remaining” value in series [3] was determined as 98.97%.
Turning to `Cc1ccc(/C(=N\Nc2ccc([N+](=O)[O-])cc2)Sc2cc(Cl)c(C)cc2S(N)(=O)=O)cc1` [Compound 12], in series [2], the “% of isomerization” value stood at 5.41%. For the same compound, in series [3], the “% of compound remaining” value was determined as 95.11%.
For the compound `COc1ccc(/C(=N\Nc2ccc([N+](=O)[O-])cc2)Sc2cc(Cl)c(C)cc2S(N)(=O)=O)cc1` [Compound 13], in series [2], the “% of isomerization” value is 2.66%. In series [3], the “% of compound remaining” value came to 95.33%.
For `Cc1cc(S(N)(=O)=O)c(SC(=NNc2ccc([N+](=O)[O-])cc2)c2ccc(O)c(Br)c2)cc1Cl` [Compound 14], in series [3], the “% of compound remaining” value turned out to be 74.88%. Besides, the biotransformation reactions observed result in series [3] (HLM with NADPH, LC-MS/MS) is on record as “reductive debromination reaction”.
On to `Cc1cc(S(N)(=O)=O)c(S/C(=N/Nc2ccc([N+](=O)[O-])cc2)c2ccc3ccccc3c2)cc1Cl` [Compound 15], for which the “% of isomerization” value in series [2] is on record as 4.93%. The “% of compound remaining” value in series [3] worked out at 99.40%.
